The results in this text go back to patent US8921358B2, “Apoptosis signal-regulating kinase 1 inhibitors” (Takeda Pharmaceutical Company Limited, priority 2008, dated 2014).

This assay concerns the target T1, human ASK1 (Homo sapiens, UniProt Q99683).
T1 construct: a 2.2 kb DNA fragment containing an ASK1 gene was recovered from the gel; made in house; host or cells: Sf-21 insect cells, recombinant baculovirus (pFASTBAC1, Bac-to-Bac)
T1 sequence (Q99683 649-1374 limits assumed): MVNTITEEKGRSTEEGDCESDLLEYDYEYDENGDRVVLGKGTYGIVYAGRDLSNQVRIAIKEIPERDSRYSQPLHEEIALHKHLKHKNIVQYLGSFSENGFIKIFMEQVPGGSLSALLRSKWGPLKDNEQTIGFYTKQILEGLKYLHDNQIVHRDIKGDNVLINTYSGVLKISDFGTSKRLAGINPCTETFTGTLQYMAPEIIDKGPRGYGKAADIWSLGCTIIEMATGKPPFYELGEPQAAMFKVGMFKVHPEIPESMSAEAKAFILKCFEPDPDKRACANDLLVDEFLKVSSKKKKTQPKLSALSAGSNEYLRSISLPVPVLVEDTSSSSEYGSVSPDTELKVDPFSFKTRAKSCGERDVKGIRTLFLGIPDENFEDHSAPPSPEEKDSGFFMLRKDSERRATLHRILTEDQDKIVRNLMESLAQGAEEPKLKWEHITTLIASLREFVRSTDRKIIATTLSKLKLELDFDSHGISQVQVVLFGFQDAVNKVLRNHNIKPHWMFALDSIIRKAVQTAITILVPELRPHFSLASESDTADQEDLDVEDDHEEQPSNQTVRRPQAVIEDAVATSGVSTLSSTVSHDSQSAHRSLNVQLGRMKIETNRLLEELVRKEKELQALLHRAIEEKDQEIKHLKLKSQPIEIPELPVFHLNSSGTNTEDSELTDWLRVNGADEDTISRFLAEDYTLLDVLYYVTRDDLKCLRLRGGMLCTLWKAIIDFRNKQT
The assay is described as follows: Scintillation assay measuring inhibition of ASK1 phosphorylation of myelin basic protein. The settings on record: active ASK1 protein 30 ng, myelin basic protein 1 μg, [γ-32P]ATP, room temperature 30 min; values given as ranges; read-out: Enzyme Activity IC50. The format is biochemical.

The term IC50 denotes the concentration that gives 50% inhibition. As to `CC(C)(O)c1ccc(C(=O)Nc2cc(N3CCC[C@H]3C(N)=O)n3nccc3n2)cc1` [Compound 92, (S)-1-(5-(4-(2-hydroxypropan-2-yl)benzamido)pyrazolo[1,5-a]pyrimidin-7-yl)pyrrolidine-2-carboxamide], the IC50 is > 1000 nM. `CC(C)(C)c1ccc(C(=O)Nc2cc(N3CCCC(O)C3)n3nccc3n2)cc1` (centres unmarked) [Compound 113, 4-tert-butyl-N-(7-(3-hydroxypiperidin-1-yl)pyrazolo[1,5-a]pyrimidin-5-yl)benzamide]: the IC50 was < 100 nM.
